US20260373266A1, “PROTEIN DEGRADERS AND USES THEREOF” (KYMERA THERAPEUTICS, INC., priority 2022, published 2026)
Read-outs that look alike come from different tables or passages of the source.

Columns and labels:
[1] = target: T1, DCAF1 WD40 domain (residues 1077-1390) (Homo sapiens, UniProt Q9Y4B6); test: DCAF1 binding assay by SPR (Biacore 8K+), DCAF1-3 KD; details: 25 °C
T1 construct: DCAF1 WD40 domain (residues 1077-1390)

[2] = test system: BRD4 (N-terminally HiBiT-tagged, HEK293T cells); test: BRD4 degradation in HiBiT-BRD4-HEK293T cells; assay type: cell-based

T1 sequence (Q9Y4B6 1077-1390): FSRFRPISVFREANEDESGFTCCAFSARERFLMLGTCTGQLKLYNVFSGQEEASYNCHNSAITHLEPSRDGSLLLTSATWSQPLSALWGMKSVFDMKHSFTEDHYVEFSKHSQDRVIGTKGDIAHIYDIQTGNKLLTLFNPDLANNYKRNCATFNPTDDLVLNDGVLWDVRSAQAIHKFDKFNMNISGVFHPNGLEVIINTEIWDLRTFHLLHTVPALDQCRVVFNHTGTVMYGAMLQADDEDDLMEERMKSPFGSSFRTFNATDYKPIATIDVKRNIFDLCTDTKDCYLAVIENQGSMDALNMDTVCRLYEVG

Kd ([1]; read-out: DCAF1-3 SPR (KD))	SMILES	further results
< 10 µM	Cc1sc2c(c1C)C(c1ccc(Cl)cc1)=N[C@@H](CC(=O)NCCOCCOCCOCCOCCOCCCc1ccc(C(=O)c3[nH]cc(C(=O)N[C@@H](CC(N)=O)c4cccc(Cl)c4)c3-c3c(F)ccc(F)c3C)cc1)c1nnc(C)n1-2 [I-907]	DC50 [2]: 0.01 to 0.1 µM; Dmax [2]: B (70-90%)
	Cc1sc2c(c1C)C(c1ccc(Cl)cc1)=N[C@@H](CC(=O)NCCOCCOCCOCCOCCCc1ccc(C(=O)c3[nH]cc(C(=O)N[C@@H](CC(N)=O)c4cccc(Cl)c4)c3-c3c(F)ccc(F)c3C)cc1)c1nnc(C)n1-2 [I-905, N—((S)-3-amino-1-(3-chlorophenyl)-3-oxopropyl)-5-(4-(1-((S)-4-(4-chlorophenyl)-2,3,9-trimethyl-6H-thieno[3,2-f][1,2,4]triazolo[4,3-a][1,4]diazepin-6-yl)-2-oxo-6,9,12,15-tetraoxa-3-azaoctadecan-18-yl)benzoyl)-4-(3,6-difluoro-2-methylphenyl)-1H-pyrrole-3-carboxamide]	Kd ([1]; DCAF1-3 SPR (KD)): < 10 µM; DC50 [2]: > 0.5 µM; Dmax [2]: B (70-90%)
100 to 200 µM	Fc1cccc(N2C3CC[C@H]2CC[C@H]3Nc2nccc(N3CCOCC3)n2)c1 (stereo in doubt) [I-60]	
10 to 100 µM	NC(=O)C[C@H](NC(=O)c1n[nH]cc1-c1ccccc1F)c1cccc(Cl)c1 [I-100]	
100 to 200 µM	Cc1sc2c(c1C)C(c1ccc(Cl)cc1)=N[C@@H](CC(=O)NCCOCCOCCOCCOCCOCCn1cc(C(=O)N[C@@H](CC(N)=O)c3cccc(Cl)c3)c(-c3ccccc3F)n1)c1nnc(C)n1-2 [I-489]	
> 200 µM	O=C(N[C@@H](c1cnoc1)c1cccc(Cl)c1)c1c[nH]nc1-c1ccccc1F [I-233]	
10 to 100 µM	c1cc(N2CCOCC2)cc(N[C@@H]2CCCN(c3ncnc4c3ncn4[C@@H]3CCCCO3)C2)n1 [I-684]	
< 10 µM	NC(=O)OCc1cccc(N2CCC[C@H]3[C@@H]2CCN3c2cc(N3CCCCC3)ccn2)c1 [I-954]	
10 to 100 µM	Nc1cc(N[C@@H]2CCCN(c3cccc(F)c3)C2)cc(C2CCCCC2)c1 [I-970]	
> 200 µM	CN(c1cccc(F)c1)C1CCCN(c2cc(N3CCCCC3)ccn2)C1 (centres unmarked) [I-660]	
10 to 100 µM	Cc1nc(N2CCC[C@@H](Nc3cc(N4CCOCC4)ccn3)C2)nc2ccccc12 [I-415]	
> 200 µM	NC(=O)C[C@H](NC(=O)[C@H]1C[C@@](O)(c2ccccc2)C1)c1cccc(Cl)c1 [I-445]	
> 200 µM	NC(=O)C[C@H](NC(=O)c1[nH]nc(Nc2ccncn2)c1-c1ccccc1F)c1cccc(Cl)c1 [I-168]	
< 10 µM	NC(=O)C[C@H](NC(=O)c1cn[nH]c1C1CCOCC1)c1cccc(Cl)c1 [I-344]	
10 to 100 µM	CC(C)n1cc(C(=O)N[C@@H](CC(N)=O)c2cccc(Cl)c2)c(-c2ccccc2F)n1 [I-138]	
< 10 µM	COCCOCCOCC[C@H]1CN(c2cc(N3CCCCC3)ccn2)[C@@H]2CCCN(c3cccc(F)c3)[C@H]12 [I-951]	
10 to 100 µM	NC(=O)C[C@H](NC(=O)c1cn[nH]c1-c1cc(CCC(=O)O)ccc1F)c1cccc(Cl)c1 [I-284]	
< 10 µM	NCCOCCOCCOCCOCCOCCC1CCN(c2ccnc(N3CC[C@@H]4[C@H]3CCCN4c3cccc(F)c3)c2)CC1 [I-651]	
10 to 100 µM	Cc1c(F)ccc(F)c1-c1[nH]ncc1C(=O)N[C@H](c1cccc(Cl)c1)[C@H]1CCOC1 [I-968]	
> 200 µM	Fc1cccc(N2C[C@H](F)C[C@@H](Nc3cc(N4CCOCC4)ncn3)C2)c1 [I-135]	
> 200 µM	NCCCCCCCCCCCCCCCCCC1CCN(c2ccnc(N3CC[C@@H]4[C@H]3CCCN4c3cccc(F)c3)c2)CC1 [I-719]	
10 to 100 µM	NC(=O)CCc1cccc(N2CCC[C@@H](Nc3cc(N4CCOCC4)ccn3)C2)c1 [I-777]	
10 to 100 µM	NC(=O)C[C@H](NC(=O)c1cn[nH]c1-c1cccc(C(N)=O)c1)c1cccc(Cl)c1 [I-350]	
> 200 µM	Fc1cccc(N2C3CC[C@H]2CC[C@H]3Nc2cc(N3CCOCC3)ccn2)c1 (stereo in doubt) [I-80]	
< 10 µM	Cc1cccc(F)c1-c1c(C(=O)N[C@@H](CC(N)=O)c2cccc(Cl)c2)c[nH]c1C(=O)c1ncccn1 [I-648]	
